# Values joined by “and” are separate entries in the source; they are usually repeats but may differ in a detail not shown here. Identical values can stand only once. Like-named read-outs stand apart in the source and are kept apart here.
# How the values were obtained:
# [1] = system: U-937 human cancer cell line
# Experimental: No Magnetic Pulses: Effects of Cell Suspension Transfer, and Presence or Absence of Doxorubicin and Dex-FeNP upon Cell Death in U-937—The effects of cell suspension transfer to the 5 mm tube was investigated. U-937 cells (40,000 cells/well) were cultured in the presence or absence of Dex-FeNP (final concentration of 0.0025 mg/mL), and in the presence or absence of doxorubicin (at the determined IC50 in U-937), and then transferred to the 5-mm NMR tube. Samples were left at room temperature for the same time duration as samples treated to magnetic pulses. Samples were returned to cell culture plates and then incubated for 2 hours, and finally evaluated for cell death.
# 20 Magnetic Pulses: Effects of Presence or Absence of Doxorubicin and Dex-FeNP upon Cellular Death in U937—To explore the effects of microporation upon cell death through the application of magnetic pulses upon Dex-FeNP, the same experimental protocol as outlined above for no pulses was performed, but with the application of 20 magnetic pulses to the sample to induce increased drug uptake and enhanced accumulation. The total time required for this single set of 20 pulses is 5 microseconds. During the 5 microseconds, the field is applied constantly, but after this time no further pulses are applied.
# 50 Magnetic Pulses: Maximizing Cell Death with Magnetic Pulses—To maximize the combinational cell death in this strategy, the number of magnetic pulses was increased.
# (§4) A suspension of U-937 or REH in RPMI-1640 medium (cell density of 40,000 cells/well) was added to each well of a 48-well plate, final volume of 0.8 mL, to which 0.2 mL of a pre-prepared solution of Dex-FeNP was added to achieve a final concentration of 0.025 mg/mL and allowed to incubate. For experiments in which no Dex-FeNP was employed, 0.2 mL of media was added in place of the nanoparticle solution. After 24 h, 2 μL of a 0.1 mM doxorubicin solution in DMSO was added to each well to achieve a 0.2 μM concentration. For experiments in which doxorubicin was not used, 0.2 μL of DMSO was added. The contents of each well were then transferred to a sterilized 5-mm NMR-tube. Samples are then placed within a magnetic field generating system and subjected to magnetic pulses. Sample not exposed to the magnetic fields are left within the NMR-tubes for the same time duration as samples treated with the magnet field. Each sample in their respective NMR-tubes were inverted to ensure homogeneity after which 0.7 mL was transferred back to their respective wells on the 48-well plate. NOTE: Only 0.7 mL was transferred to ensure constant volume within each well post-magnetic field application.
# U-937 cells [2] = experiment: Drug uptake within U-937 cells quantified via HPLC; assay type: cell-based, human; details: for increase of doxorubicin within cells (uptake), magnetic field pulses vs untreated: 20 magnetic field pulses, HPLC 1.5-2 h after administration
# Experimental: Employing the same experimental conditions used for cellular death analysis, quantification of doxorubicin was achieved via HPLC. The protocol of this experiment differed from the cellular death analysis in that quantification of doxorubicin was performed 2 hours after administration, rather than 48 hours. Rationale for this is based upon the rapid translocation of doxorubicin into the nucleus where it elicits its therapeutic action.
# (§1) After following the general procedures above, samples were incubated for 1.5 h. The cells were then transferred to an Eppendorf tube and centrifuged at 7,500 g for 5 mins, after which the suspension media was removed. The resulting cell pellet was washed with the addition of 0.7 mL of PBS and removed, twice. The cells were lysed with the addition of 0.35 mL of a lysis solution (EDTA, SDS, Tris HCl at pH 8.00), centrifuged at 20,000 gravity for 15 min to pellet large cellular debris, and the supernatant was removed and analyzed via HPLC for doxorubicin quantification.
# (§2) Analysis was performed using a Shimadzu HPLC system with C18 analytical column maintained at 32° C. Mobile phases consisted of water-formic acid (999:1, v/v, phase A) and acetonitrile-formic acid (999:1, v/v, phase B) filtered through a membrane filter (0.2 μm) prior to use. A gradient program starting at A:B (85:15, v/v) and ending at A:B (50:50, v/v) was applied over 20 min at a flow rate of 0.35 mL/min. (A:B-85:15-2 min, A:B 50:50-3-8 min, A:B 85:15-9-20 min). The column effluent was monitored via 590 nm.
# Employing the same procedure, cells were incubated with the magnetic nanoparticles, treated with dox in the absence and presence of the magnetic field and left to incubate. After 1.5 h, the cells were pelleted, washed twice with sterile PBS, lysed, centrifuged to removal large cellular debris, and then analyzed via HPLC.
# U-937 cells [3] = details: nanoparticles plus magnetic field pulses vs control
# Experimental: as §4
# (§5) After following the general procedure above, samples were incubated for 48 h and then 70 μL of Alamar blue was added to each well and left to incubate for an additional 2 h. Cells were assessed for viability via standard methods for Alamar blue quantification.
# [4] = system: U-937 (histiocytic lymphoma) human cancer cell line
# Text: (§6) To evaluate the proposed magnetic field facilitated nanoparticle induced microporation, U-937 (lymphoma cancerous suspension cell line) was selected. To investigate the possible toxicity effects of Dex-FeNP within U-937 cells, doxorubicin was used as an evaluation tool. Through the comparison of the IC50 of doxorubicin in U-937 cells relative to the IC50 of doxorubicin in the presence of various concentration of the Dex-FeNP allows for direct comparison of the effects that the Dex-FeNP have upon U-937 cells. In addition to the concentration of the Dex-FeNP, the effects of cell seeding density was also investigated in 384 and 48-well plates (4,000 and 40,000 cells/well, respectively).
# (§7) To either 48 or 96 well plates was added doxorubicin (100 to 0.1 μM) in DMSO, Dex-FeNP (0.25 to 0 mg/mL), and U-937 or REH cells (4,000 cells/well and 40,000 cells/well, respectively) to final volumes of 50 and 700 μL. Samples were incubated for 48 h, cell viability was assessed by adding 5 and 70 μM of Alamar blue to each well, incubated for an additional 2 h, and fluorescence read. IC50 values were determined from three or more independent experiments using Prism by GraphPad.
# [5] = system: U-937 (histiocytic lymphoma) human cancer cell line; experiment: cells; details: U-937, 48 h
# Text: as §6, §7
# [6] = system: REH human cancer cell line (acute lymphocytic leukemia); experiment: Cell death in REH with/without Dex-FeNP, drug and magnetic field pulses (Alamar Blue); assay type: cell-based
# Experimental: (§3) Additional cancer cell line: Following the same protocol as outlined above, doxorubicin was evaluated in the REH cancerous cell line. […] As previously observed, when doxorubicin was introduced in the absence of Dex-FeNP cell death increased to ˜40%. […] A trend also observed within the U-937 cell line with doxorubicin.
# REH cell line = experiment: Drug accumulation within REH cells quantified via HPLC; assay type: cell-based, human
# Experimental: as §3, §1, §2
# U-937 cells [7] = experiment: cells; details: Homo sapiens, U-937, U-937
# Experimental: as §4, §5
compound,measurement,setting,value
"S=c1nc[nH]c2nc[nH]c12 [6TP, 6-thiopurine]",increase in cell death,"[1]; U-937 (printed U-397), Dex-FeNP and 6TP in the presence of magnetic field (20 pulses), 48 h",3%
same,increase in accumulation of 6TP,"U-937 cells [2]; U-937, Dex-FeNP plus 20 MF pulses, 2 h period",21.4%
COc1cccc2c1C(=O)c1c(O)c3c(c(O)c1C2=O)C[C@@](O)(C(=O)CO)C[C@@H]3O[C@H]1C[C@H](N)[C@H](O)[C@H](C)O1 [Doxorubicin],enhancement of the effects of the anti-cancer agent by the methodology,U-937 cells [3],up to 65%
same,IC50 of doxorubicin relative to the doxorubicin control alone,"[4]; Dex-FeNP 0.0025 mg/mL (dilution 1/400), both cell density experiments",returned to normal levels within the margins of standard deviation
same,IC50 of doxorubicin relative to the doxorubicin control alone,[4]; higher concentrations of Dex-FeNP (0.25 and 0.01 mg/mL),increased in value significantly
same,cell death,"[1]; U-937, doxorubicin at its IC50, absence of Dex-FeNP and magnetic pulses",over 50%
same,cell death,"[1]; U-937, doxorubicin plus Dex-FeNP, no magnetic field",remained similar
same,cell death,"[1]; U-937, doxorubicin plus Dex-FeNP, no magnetic field, listed as dox",~50%
same,increase in cell death,"[1]; U-937, pre-treated with magnetic nanoparticles, dox, 20 pulses of the magnetic field",~8%
same,increase in cell death,"[1]; U-937, pre-treated with magnetic nanoparticles, dox, 50 pulses",an increase in cell death
same,increase in cell death,"[1]; U-937, pre-treated with magnetic nanoparticles, dox, 50 pulses, listed as dox",12%
same,increase in U-937 cell death,"[1]; all three elements present: doxorubicin, Dex-FeNP, magnetic pulses (number of pulses not stated)",9.1%
same,increase in cytotoxicity,"[1]; human, 48 h, 0.2 μM",~50%
same,IC50,"[5]; read-out: Doxorubicin IC50 (μM) in U-937, 48 h, 4,000 cells/well, 384 plate, 50 μL volume, Dextrin Nano-Particle 0 mg/mL",0.023 ± 0.012 µM
same,IC50,"[5]; read-out: Doxorubicin IC50 (μM) in U-937, 48 h, 4,000 cells/well, 384 plate, 50 μL volume, Dextrin Nano-Particle 0.000001 mg/mL",0.022 ± 0.019 µM
same,IC50,"[5]; read-out: Doxorubicin IC50 (μM) in U-937, 48 h, 4,000 cells/well, 384 plate, 50 μL volume, Dextrin Nano-Particle 0.0001 mg/mL",0.018 ± 0.011 µM
same,IC50,"[5]; read-out: Doxorubicin IC50 (μM) in U-937, 48 h, 4,000 cells/well, 384 plate, 50 μL volume, Dextrin Nano-Particle 0.001 mg/mL",0.018 ± 0.014 µM
same,IC50,"[5]; read-out: Doxorubicin IC50 (μM) in U-937, 48 h, 4,000 cells/well, 384 plate, 50 μL volume, Dextrin Nano-Particle 0.00125 mg/mL",0.022 ± 0.008 µM
same,IC50,"[5]; read-out: Doxorubicin IC50 (μM) in U-937, 48 h, 4,000 cells/well, 384 plate, 50 μL volume, Dextrin Nano-Particle 0.001666 mg/mL",0.018 ± 0.012 µM
same,IC50,"[5]; read-out: Doxorubicin IC50 (μM) in U-937, 48 h, 4,000 cells/well, 384 plate, 50 μL volume, Dextrin Nano-Particle 0.0025 mg/mL",0.018 ± 0.009 µM
same,IC50,"[5]; read-out: Doxorubicin IC50 (μM) in U-937, 48 h, 4,000 cells/well, 384 plate, 50 μL volume, Dextrin Nano-Particle 0.01 mg/mL",3.44 ± 0.56 µM
same,IC50,"[5]; read-out: Doxorubicin IC50 (μM) in U-937, 48 h, 4,000 cells/well, 384 plate, 50 μL volume, Dextrin Nano-Particle 0.25 mg/mL",4.19 ± 0.95 µM
same,IC50,"[5]; read-out: Doxorubicin IC50 (μM) in U-937, 48 h, 40,000 cells/well, 48 plate, 700 μL volume, Dextrin Nano-Particle 0 mg/mL",0.201 ± 0.032 µM
same,IC50,"[5]; read-out: Doxorubicin IC50 (μM) in U-937, 48 h, 40,000 cells/well, 48 plate, 700 μL volume, Dextrin Nano-Particle 0.000001 mg/mL",0.2 ± 0.079 µM
same,IC50,"[5]; read-out: Doxorubicin IC50 (μM) in U-937, 48 h, 40,000 cells/well, 48 plate, 700 μL volume, Dextrin Nano-Particle 0.0001 mg/mL",0.17 ± 0.024 µM
same,IC50,"[5]; read-out: Doxorubicin IC50 (μM) in U-937, 48 h, 40,000 cells/well, 48 plate, 700 μL volume, Dextrin Nano-Particle 0.001 mg/mL",0.19 ± 0.035 µM
same,IC50,"[5]; read-out: Doxorubicin IC50 (μM) in U-937, 48 h, 40,000 cells/well, 48 plate, 700 μL volume, Dextrin Nano-Particle 0.00125 mg/mL",0.32 ± 0.022 µM
same,IC50,"[5]; read-out: Doxorubicin IC50 (μM) in U-937, 48 h, 40,000 cells/well, 48 plate, 700 μL volume, Dextrin Nano-Particle 0.001666 mg/mL",0.2 ± 0.027 µM
same,IC50,"[5]; read-out: Doxorubicin IC50 (μM) in U-937, 48 h, 40,000 cells/well, 48 plate, 700 μL volume, Dextrin Nano-Particle 0.0025 mg/mL",0.2 ± 0.019 µM
same,IC50,"[5]; read-out: Doxorubicin IC50 (μM) in U-937, 48 h, 40,000 cells/well, 48 plate, 700 μL volume, Dextrin Nano-Particle 0.01 mg/mL",4.83 ± 0.028 µM
same,IC50,"[5]; read-out: Doxorubicin IC50 (μM) in U-937, 48 h, 40,000 cells/well, 48 plate, 700 μL volume, Dextrin Nano-Particle 0.25 mg/mL",6.25 ± 0.208 µM
same,increase in cell death,[6]; Dex-FeNP and doxorubicin in the presence of the magnetic field (20 pulses),~8%
same,cell death,"[6]; doxorubicin in the absence of Dex-FeNP, 20 magnetic field pulses",~40%
same,increase in accumulation of doxorubicin,"REH cell line; Dex-FeNP and doxorubicin, 20 magnetic field pulses, 2 h period",38.7%
same,doxorubicin accumulation,REH cell line; absence of Dex-FeN and magnetic field,no increase in doxorubicin accumulation
same,IC50,"U-937 cells [7]; Dex-FeNP (0.0025 mg/mL) alone, no magnetic field pulses",273 nM
same,IC50,U-937 cells [7]; Dex-FeNP (0.0025 mg/mL) plus 20 magnetic field pulses (combinational strategy),165 nM
same,doxorubicin uptake relative to cells with neither Dex-FeNP nor pulses,"U-937 cells [2]; U-937, Dex-FeNP, magnet pulses not applied",no increase in doxorubicin uptake
same,"increase of doxorubicin within cells (uptake), magnetic field pulses vs untreated",U-937 cells [2]; U-937 with Dex-FeNP,75.2%
same,"increase of doxorubicin within cells (uptake), magnetic field pulses vs untreated","U-937 cells [2]; U-937 with Dex-FeNP, listed as doxorubicin",75.2% and 75%
same,doxorubicin accumulation difference between the two systems at later time points,"U-937 cells [2]; U-937 with Dex-FeNP, with vs without pulses, later than 2 h",lower than 75%
